Primed or numbered codes have the meaning given here. * marks the point of attachment. 10Ca = carbamate linkage conjugating the peptide-PEG to paclitaxel at C10; 10Ca‑PXL = paclitaxel conjugated at C10 via a carbamate; 3Am‑VBL = vinblastine (VBL) conjugate; 3Am‑VBL″ = vinblastine conjugate; PEG(13)″ = PEG(13) linker; PEG(11) = PEG(11) linker; DMAB = not defined here; 3Am = not defined here; Cbz = O=C(OCc1ccccc1)*; PEG(13) = PEG13 linker; Piv = CC(C)(C)C(=O)*; OBn = c1ccc(CO*)cc1; VBL = vinblastine; PXL = paclitaxel
Assays:
[1] = Serum stability in RPMI1640 medium containing 10% fetal bovine serum; type: in vitro ADME
Procedure: The stability of conjugates was measured in RPMI1640 cell culture medium containing 10% fetal bovine serum. The serum-containing medium was pre-warmed at 37° C. for 3 min prior to addition of test articles. Test articles, prepared in DMSO as 5 mM stocks, were added to the cell culture media to a final concentration of 10 μM. Aliquots ([…]) were withdrawn in triplicate at 0, 4, 8, 24 and 72 hours and combined with the same volume of ice-cold acetonitrile to terminate the reaction. The mixture was centrifuged at 2,000×g for 10 minutes. One part of the supernatant was mixed with four parts of deionized water to bring down the percentage of organic solvent. The diluted samples were then assayed by LC/MS for the test article. The natural log of the percent remaining was plotted versus time. A linear fit was used to determine the rate constant. The fit was truncated after the percent of remaining test article was less than 10%. The elimination half-lives associated with the disappearance of test articles were determined to compare their relative stability. The assays were carried out by Absorption Systems (Exton, Pa.).

[2] = test system: HT-29 colorectal carcinoma; test: Cytotoxicity assay (monolayer), HT-29; type: cell-based; conditions: HT29, ML (monolayer); read-out: HT29 (EC50 Ave) ML;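 also: monolayer cultures tested in triplicate, compound exposure for three days against DMSO vehicle controls, EC50 fitted from dose-response curves and averaged across all tests and lots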
[3] = test system: HUVEC; test: Cytotoxicity assay (monolayer), HUVEC; type: cell-based; conditions: ML (monolayer), read-out: HUVEC (EC50 Ave) ML
[4] = test system: tubulin; test: Fluorescence-based tubulin polymerization assay (MPA; enhancement for paclitaxel, inhibition for vinblastine); type: biochemical
How it was run: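 Tubulin polymerisation was followed by fluorescence (ex 360/em 405 nm) with 1 mg/ml BSA in all assays. For paclitaxel conjugates, glycerol was omitted. Parent drugs and conjugates were tested at 0.75, 1.5, 3 and 10 micromolar final, and values come from the linear range of the dose responses.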

[5] = test system: MCF-7 breast carcinoma; test: Cytotoxicity assay (monolayer), MCF-7; type: cell-based; conditions: MCF7, ML (monolayer); read-out: MCF7 (EC50 Ave) ML;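 also: cells treated 72 h with 6-8 compound doses versus DMSO vehicle controls, EC50 fitted by 4-parameter dose-response curves, averaged across all tests and lots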
[6] = test system: Normal human foreskin fibroblasts (HFF); conditions: read-out: HFF (EC50 Ave) ML; HFF, ML (monolayer)
[7] = biological target: Akt (Homo sapiens, UniProt P31749); test: Akt kinase assay (PKLight ATP utilization, substrate phosphorylation as % of parent peptide); type: biochemical; set-up: purchased Upstate (Charlottesville, Va.) 14-276
Sequence of Akt (P31749 whole entry): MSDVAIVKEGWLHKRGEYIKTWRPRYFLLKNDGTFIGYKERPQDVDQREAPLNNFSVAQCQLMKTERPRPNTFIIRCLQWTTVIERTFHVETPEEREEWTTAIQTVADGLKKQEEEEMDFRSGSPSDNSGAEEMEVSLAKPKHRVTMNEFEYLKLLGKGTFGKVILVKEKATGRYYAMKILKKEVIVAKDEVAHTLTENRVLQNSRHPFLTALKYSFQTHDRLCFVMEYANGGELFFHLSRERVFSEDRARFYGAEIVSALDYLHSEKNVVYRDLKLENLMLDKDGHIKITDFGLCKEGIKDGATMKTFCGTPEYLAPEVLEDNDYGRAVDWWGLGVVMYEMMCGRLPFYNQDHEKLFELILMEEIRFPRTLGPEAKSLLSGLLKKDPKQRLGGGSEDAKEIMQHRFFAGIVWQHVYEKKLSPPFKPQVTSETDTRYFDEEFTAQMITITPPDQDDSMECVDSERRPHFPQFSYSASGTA
Procedure: Another test may involve monitoring the consumption of ATP. For example, ATP concentrations at time 0 or after 4 hour incubation may be monitored by luciferase reaction (PKLight kit obtained from Cambrex Corporation, One Meadowlands Plaza, East Rutherford, N.J. 07073), which generate a luminescence readout in the presence of ATP. Assays are initiated by mixing a kinase and a peptide in the presence of 40 μM ATP. After 4 hour of incubation at 30° C., PKLight reagent is added and mixed well, and luminescence readout measured. The rate of peptide phosphorylation is then directly related to the rate of decrease in the observed luminescence. Based on the first test, linkers of appropriate lengths and peptides with an effective amount of kinase activity which may be expected to be retained in the drug conjugate may be found.
Human Src (#14-326) and Akt (#14-276) kinases were purchased from Upstate (Charlottesville, Va.). Kinase reactions were carried out in 50 μl kinase reaction cocktail (25 mM Tris-HCl, pH 7.5, 5 μM β-glycerophosphate, 2 mM DTT, 0.1 mM Na3VO4, 10 mM MgCl2, 1 mg/ml BSA, […], 0.5 to 1.0 units enzyme). Substrates (peptide or drug-peptide conjugate in […]) were added (25, 50 and 100 μM) and the reaction was incubated for 2-5 hours at 30° C. PKLight reagent (23 μl) (Cambrex BioSciences, Rockland, Me.) was mixed with […] of the above kinase reaction and ATP utilization relative to no substrate and no ATP controls was determined by measuring luminescence with a SpectraMax Gemini EM plate reader (Molecular Devices, Sunnyvale, Calif.). Peptide substrates for Src and Akt have been described. For examples, see Lou et al. Letters in Peptide Science, 2, 289-296 (1995); Lou et al. Bioorganic & Medicinal Chemistry, 4, 677-682 (1996); Alessi et al. FEBS Letters, 399, 333-338 (1996). Substrate phosphorylation potential was determined from the linear portion of the substrate concentration dose response as a percentage of the activity observed with the parent peptide used for drug conjugation.

[8] = test system: HT-29 cells; conditions: read-out: HT29 (EC50 Ave) SA; HT29, SA (soft agar)
[9] = biological target: T1, Human Src (Homo sapiens, UniProt P12931); test: Src kinase assay (PKLight ATP utilization, substrate phosphorylation as % of parent peptide); type: biochemical
T1 construct: purchased Upstate (Charlottesville, Va.) 14-326
How it was run: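 Recombinant human Src or Akt phosphorylated peptide or drug–peptide conjugate substrates (25, 50, 100 μM) at 30° C for 2–5 hours, in Tris-HCl pH 7.5 buffer with MgCl2 and ATP. ATP use was read by luciferase luminescence against no-substrate and no-ATP controls. Phosphorylation was taken from the linear range and expressed as % of the parent peptide.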

[10] = test system: MCF-7 cells; conditions: read-out: MCF7 (EC50 Ave) SA; MCF7, SA (soft agar)

| Compound | Relative Percent Remaining at 0 hr ([1]; 0 hr) [%] | remaining at 4 h, 10 μM ([1]; bovine, 4 hr, read-out: Relative Percent Remaining at 4 hr) [%] | remaining at 8 h, 10 μM ([1]; bovine, 8 hr, read-out: Relative Percent Remaining at 8 hr) [%] | remaining at 24 h, 10 μM ([1]; bovine, 24 hr, read-out: Relative Percent Remaining at 24 hr) [%] | remaining at 72 h, 10 μM ([1]; bovine, 72 hr, read-out: Relative Percent Remaining at 72 hr) [%] | EC50 [2] [nM] | EC50 [3] [nM] | Ave. MPA Act. [4] | EC50 [5] [nM] | EC50 [6] [nM] | Ave. Akt Kinase Act. [7] | EC50 [8] [nM] | Average src kinase activity [9] | EC50 [10] [nM] |
| --- | --- | --- | --- | --- | --- | --- | --- | --- | --- | --- | --- | --- | --- | --- |
| CC(=O)O[C@H]1C(=O)[C@@]2(C)[C@H]([C@H](OC(=O)c3ccccc3)[C@]3(O)C[C@H](OC(=O)[C@H](O)[C@@H](NC(=O)c4ccccc4)c4ccccc4)C(C)=C1C3(C)C)[C@]1(OC(C)=O)CO[C@@H]1C[C@@H]2O [Paclitaxel, reference compound] | 100 | 73 | 59 | 28 | < 3 | – | – | – | – | – | – | – | – | – |
| Ac-GRPRTSSFAEG-3Am-VBL (Ac-GRPRTSSFAEG-{3Am-VBL}; reading uncertain; also: TFA salt, printed as Ac-GRPRTSSFAEG-3Am-VBL) | – | – | – | – | – | 20 to 100 | < 20 | C (C>80) | 20 to 100 | 20 to 100 | C (C>40) | – | – | – |
| Ac-RPRTSSF-PEG(11)-3Am-VBL (N-acetyl; PEG(11) linker; vinblastine conjugate) | – | – | – | – | – | 20 to 100 | > 100 | C (C>80) | 20 to 100 | 20 to 100 | C (C>40) | – | – | – |
| Ac-RSRTSSF-PEG(13)-10Ca-PXL (N-acetyl; PEG(13) linker; paclitaxel conjugate) | – | – | – | – | – | – | – | C (C>80) | – | – | C (C>40) | – | – | – |
| BOC-RPRTSSF-PEG(11)-3Am-VBL (N-BOC; PEG(11) linker; vinblastine conjugate) | – | – | – | – | – | 20 to 100 | 20 to 100 | C (C>80) | 20 to 100 | 20 to 100 | C (C>40) | – | – | – |
| BOC-YIYGSFR-PEG(11)-3Am-VBL (N-BOC; PEG(11) linker; vinblastine conjugate) | – | – | – | – | – | > 100 | > 100 | C (C>80) | > 100 | > 100 | – | > 100 | B (B=20-40) | > 100 |
| CBz-E(Bzl)YIFGSFK-PEG(11)-3Am-VBL (CBz-Glu(Bzl) N-terminal; PEG(11); vinblastine conjugate) | – | – | – | – | – | > 100 | > 100 | B (B=50-80) | > 100 | > 100 | – | > 100 | C (C>40) | > 100 |
| CBz-GRPRTSSFAEG-3Am-VBL (Cbz-GRPRTSSFAEG-{3Am-VBL}; reading uncertain; also: printed as CBz-GRPRTSSFAEG-3Am-VBL) | – | – | – | – | – | > 100 | > 100 | C (C>80) | > 100 | > 100 | C (C>40) | – | – | – |
| CBz-RPRTSSF-PEG(29)-3Am-VBL (N-CBz; PEG(29) linker; vinblastine conjugate) | – | – | – | – | – | > 100 | > 100 | B (B=50-80) | > 100 | > 100 | C (C>40) | – | – | > 100 |
| Ph(C═O)-RPRTSSF-PEG(11)-3Am-VBL (N-benzoyl; PEG(11) linker; vinblastine conjugate) | – | – | – | – | – | 20 to 100 | 20 to 100 | C (C>80) | 20 to 100 | 20 to 100 | C (C>40) | – | – | – |
| Pv-E(Bzl)YIYGSFK(CBz)-PEG(13)-10Ca-PXL (Piv-E(OBn)YIYGSFK(Cbz)-{PEG(13)″-10Ca-PXL}; also: TFA salt) | – | – | – | – | – | > 100 | > 100 | A (A<50) | > 100 | > 100 | – | > 100 | A (A<20) | 20 to 100 |
| Pv-E(DMAB)YIYGSFR-PEG(11)-3Am-VBL (EYIYGSFR) | – | – | – | – | – | > 100 | 20 to 100 | B (B=50-80) | 20 to 100 | > 100 | – | 20 to 100 | A (A<20) | 20 to 100 |
| Pv-EYIYGSFR-PEG(13)-10Ca-PXL (Piv-EYIYGSFR-{PEG(13)-10Ca‑PXL}) | – | – | – | – | – | > 100 | > 100 | B (B=50-80) | > 100 | > 100 | – | > 100 | B (B=20-40) | > 100 |
| Pv-GRPRTSSFAE(DMAB)G-3Am-VBL (Piv-GRPRTSSFAE(DMAB)G-{3Am‑VBL″}; not fully specified; reading uncertain) | – | – | – | – | – | > 100 | > 100 | C (C>80) | > 100 | > 100 | C (C>40) | – | – | – |
| Pv-GRPRTSSFAEG-3Am-VBL (Piv-GRPRTSSFAEG-{3Am‑VBL}; also: 2 TFA salt) | – | – | – | – | – | > 100 | > 100 | C (C>80) | > 100 | > 100 | C (C>40) | – | – | – |
| Pv-GRPRTSSFAEG-PEG(13)-10Ca-PXL (Piv-GRPRTSSFAEG-{PEG(13)-10Ca‑PXL}; also: TFA salt) | – | – | – | – | – | > 100 | > 100 | C (C>80) | > 100 | > 100 | C (C>40) | – | – | – |
| Pv-RSRKESY-PEG(13)-10Ca-PXL (Piv-RSRKESY-{PEG(13)-10Ca‑PXL}; also: 2 TFA salt) | – | – | – | – | – | – | – | C (C>80) | – | – | C (C>40) | – | – | – |
| Pv-RSRTSSF-PEG(11)-3Am-VBL (Piv-RSRTSSF-{PEG(11)-3Am‑VBL}; also: 2 TFA salt) | – | – | – | – | – | > 100 | > 100 | C (C>80) | > 100 | > 100 | C (C>40) | – | – | – |
| Pv-RSRTSSFAEG-PEG(13)-10Ca-PXL (Piv-RSRTSSFAEG-{PEG(13)-10Ca‑PXL}; also: 2 TFA salt) | – | – | – | – | – | – | – | C (C>80) | – | – | C (C>40) | – | – | – |
| Pv-YIFGSFR-PEG(13)-10Ca-PXL (Piv-YIFGSFR-{PEG(13)″-10Ca‑PXL}; also: TFA salt) | – | – | – | – | – | > 100 | > 100 | A (A<50) | > 100 | > 100 | – | > 100 | Zero | 20 to 100 |
| Pv-YIYGSFR-PEG(11)-3Am-VBL (Piv-YIYGSFR-{PEG(11)-3Am‑VBL}) | – | – | – | – | – | > 100 | > 100 | C (C>80) | > 100 | > 100 | – | > 100 | B (B=20-40) | > 100 |

Source: US20060234909A1, “Compositions and methods for increasing drug efficiency” (priority 2003, published 2006)
